From patent US20210198647A1, “Enhancers of Neurolysin Activity” (Texas Tech University System, priority 2018, published 2021)
“And” between values parts separate entries of the source, which are not always exact repeats. Equal values may be shown once. Read-outs that look alike come from different tables or passages of the source. Square brackets hold non-standard residues; d marks the D form. Peptide text beside a SMILES is read from it. * marks the point of attachment. NHPhenethyl = c1ccc(CCN*)cc1; Boc = CC(C)(C)OC(=O)*

Target: T1, Neurolysin (Nln) (Rattus norvegicus, UniProt P42676)
T1 construct: polyhistidine (N); made in house; host or cells: Escherichia coli (pBAD/His vector), if the rat enzyme of b61 was used
Assay: Nln activation in isolated enzyme assay (A50, Amax)
Type: biochemical
Conditions: for EC50: read-out: A50 (concentration required to activate Nln by 50%)

[1] = 100% = normal enzyme turnover, 95% CI in parentheses

T1 sequence (P42676 38-704): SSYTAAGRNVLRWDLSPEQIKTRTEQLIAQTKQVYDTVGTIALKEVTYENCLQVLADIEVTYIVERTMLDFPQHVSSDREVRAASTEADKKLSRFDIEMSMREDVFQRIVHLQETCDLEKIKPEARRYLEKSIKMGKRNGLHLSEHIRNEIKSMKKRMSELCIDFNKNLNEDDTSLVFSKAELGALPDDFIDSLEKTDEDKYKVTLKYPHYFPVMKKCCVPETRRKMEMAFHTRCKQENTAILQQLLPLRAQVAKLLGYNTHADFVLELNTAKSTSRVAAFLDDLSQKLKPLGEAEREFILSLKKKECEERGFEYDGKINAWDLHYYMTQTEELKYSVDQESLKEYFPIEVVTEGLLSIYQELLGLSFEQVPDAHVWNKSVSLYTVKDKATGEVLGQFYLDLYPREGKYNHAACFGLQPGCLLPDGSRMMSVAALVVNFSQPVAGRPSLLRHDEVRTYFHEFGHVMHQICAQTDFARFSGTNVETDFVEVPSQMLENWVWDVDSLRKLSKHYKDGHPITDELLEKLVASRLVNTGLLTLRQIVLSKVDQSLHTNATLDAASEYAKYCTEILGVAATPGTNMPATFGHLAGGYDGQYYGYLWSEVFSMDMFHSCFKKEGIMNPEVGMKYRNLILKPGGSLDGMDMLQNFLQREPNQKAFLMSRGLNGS

## N[C@H](Cc1c[nH]cn1)C(=O)NCCc1ccc2ccccc2c1 [SR19-2d]
  Amax (maximum % activation achieved): 339.8 (325.4 to 355.4) %

## N[C@H](Cc1c[nH]cn1)C(=O)NCCc1ccccc1 [AB-2-7-2]
[1]
  Amax (maximum % activation achieved): 407 (382.7 to 434.9) %

## COc1cccc(CCNC(=O)[C@H](N)Cc2c[nH]cn2)c1 [SR15-1d]
[1]
  Amax (maximum % activation achieved): 255.3 (230.5 to 284.8) %

## N[C@H](Cc1c[nH]cn1)C(=O)NCCc1ccccc1 [Compound 4d, (R)-2-amino-3-(1H-imidazol-4-yl)-N-phenethylpropanamide]
[1]
  Amax (maximum % activation achieved): 294.6 (278.0 to 313) %

## N[C@@H](Cc1c[nH]cn1)C(=O)NCCc1ccc2ccccc2c1 [SR18-1]
  Amax (maximum % activation achieved): 323.7 (310.3 to 337.9) %

## N[C@@H](Cc1c[nH]cn1)C(=O)N[C@@H](Cc1ccccc1)C(=O)O (stereo in doubt) [Compound 3, His-Phe]
95% CI in parentheses
  EC50: 130 µM
[1]
  Amax (maximum % activation achieved): 573 (547.9 to 602.7) %
100% = normal enzyme turnover, 95% CI in parentheses, listed as His-Phe
  Amax (maximum % activation achieved): 573 (547.9 to 602.7) %

## N[C@H](Cc1c[nH]cn1)C(=O)NCc1cccc2ccccc12 [Compound 10d, (R)-2-amino-3-(1H-imidazol-4-yl)-N-(naphthalen-1-ylmethyl)propanamide]
[1]
  Amax (maximum % activation achieved): 343 (325.2 to 363.5) %

## N[C@H](C(=O)N1CCC[C@H]1C(=O)O)c1c[nH]cn1 [His-Pro]
  Amax (maximum % activation achieved): 502 (488.4 to 515.7) %

## N[C@H](Cc1c[nH]cn1)C(=O)NCCc1ccc(C(F)(F)F)cc1 [Compound 4l, (R)-2-amino-3-(1H-imidazol-4-yl)-N-(4-(trifluoromethyl)phenethyl)propanamide]
  Amax (maximum % activation achieved): 330.1 (313.9 to 347.7) %

## N[C@@H](Cc1c[nH]cn1)C(=O)Nc1ccccc1 [Compound 6a, (S)-2-amino-3-(1H-imidazol-4-yl)-N-phenylpropanamide]
95% CI in parentheses
  EC50: 252 µM
[1]
  Amax (maximum % activation achieved): 467% and 466.6%

## N[C@@H](Cc1c[nH]cn1)C(=O)NCCCc1ccccc1 [Compound 7a, (S)-2-amino-3-(1H-imidazol-4-yl)-N-(3-phenylpropyl)propanamide]
[1]
  Amax (maximum % activation achieved): 288.1 (273.6 to 303.8) %

## N[C@H](Cc1c[nH]cn1)C(=O)NCCc1ccc([N+](=O)[O-])cc1 [Compound 4p, (R)-2-amino-3-(1H-imidazol-4-yl)-N-(4-nitrophenethyl)propanamide]
  Amax (maximum % activation achieved): 267.5 (250.1 to 287.1) %

## N[C@H](Cc1c[nH]cn1)C(=O)NCc1ccc(F)cc1 [Compound 5o, (R)-2-amino-N-(4-fluorobenzyl)-3-(1H-imidazol-4-yl)propanamide]
  Amax (maximum % activation achieved): 320.5 (299.7 to 343.9) %

## N[C@H](Cc1c[nH]cn1)C(=O)NCCCc1ccccc1 [Compound 7b, (R)-2-amino-3-(1H-imidazol-4-yl)-N-(3-phenylpropyl)propanamide]
[1]
  Amax (maximum % activation achieved): 281.8 (269.9-294.5) %

## N[C@@H](Cc1c[nH]cn1)C(=O)N[C@@H](Cc1ccc(O)cc1)C(=O)O [Compound 1, Histidine-tyrosine] (H-His-Tyr-OH)
[1]
  Amax (maximum % activation achieved): 467 (424.9 to 516.9) %
100% = normal enzyme turnover, 95% CI in parentheses, listed as His-Tyr
  Amax (maximum % activation achieved): 467 (424.9 to 516.9) %

## N[C@H](Cc1c[nH]cn1)C(=O)Nc1ccccc1 [Compound 6b, (R)-2-amino-3-(1H-imidazol-4-yl)-N-phenylpropanamide]
95% CI in parentheses
  EC50: 114 µM
[1]
  Amax (maximum % activation achieved): 440.3 (414.9 to 470.4) %

## N[C@H](Cc1c[nH]cn1)C(=O)NCc1ccccc1C(F)(F)F [Compound 5k, (R)-2-amino-3-(1H-imidazol-4-yl)-N-(2-(trifluoromethyl)benzyl)propanamide]
  Amax (maximum % activation achieved): 345.8 (317.5 to 378.3) %

## N[C@H](Cc1c[nH]cn1)C(=O)NCc1ccc(C(F)(F)F)cc1 [Compound 5i, (R)-2-amino-3-(1H-imidazol-4-yl)-N-(4-(trifluoromethyl)benzyl)propanamide]
  Amax (maximum % activation achieved): 319.1 (296.3 to 344.3) %

## COc1ccccc1CNC(=O)[C@@H](N)Cc1c[nH]cn1 [Compound 5d]
  Amax (maximum % activation achieved): 385.8 (363.8 to 410.5) %

## N[C@@H](Cc1ccc(O)cc1)C(=O)N[C@H](Cc1c[nH]cn1)C(=O)O [Compound 4a, H-Try-His-OH] (H-Tyr-[dH]-OH)
  Nln activation (in words): complete amelioration of Nln activation
95% CI in parentheses
  A50 (concentration required to activate Nln by 50%): Inactive
[1]
  Amax (maximum % activation achieved): Inactive

## COc1ccccc1CNC(=O)[C@H](N)Cc1c[nH]cn1 [SR16-1d]
  Amax (maximum % activation achieved): 324.9 (304 to 349) %

## CC(C)(C)OC(=O)N[C@@H](Cc1c[nH]cn1)C(=O)N[C@H](Cc1ccccc1)C(=O)O [Compound 4b] (Boc-His-[dF]-OH)
  Nln activation (in words): inactive

## N[C@@H](Cc1c[nH]cn1)C(=O)NCCc1ccccc1 [Compound 4c, (S)-2-amino-3-(1H-imidazol-4-yl)-N-phenethylpropanamide]
[1]
  Amax (maximum % activation achieved): 337.2 (302-378.6) %

## N[C@@H](Cc1c[nH]cn1)C(=O)N[C@@H](Cc1ccccc1)C(=O)NCCc1ccccc1 [AB-2-5-4] (H-His-Phe-NHPhenethyl)
95% CI in parentheses
  EC50: 5.4 µM
[1]
  Amax (maximum % activation achieved): 177.6 (158.7 to 198.1) %

## N[C@H](Cc1c[nH]cn1)C(=O)NCCc1cc2ccccc2[nH]1 [SR-8-2d]
  Amax (maximum % activation achieved): 132 (122.5 to 143.6) %

## N[C@H](Cc1c[nH]cn1)C(=O)NCc1cccc2ccccc12 [SR-10-1d]
[1]
  Amax (maximum % activation achieved): 343 (325.2 to 363.5) %

## COc1cccc(CNC(=O)[C@H](N)Cc2cnc[nH]2)c1 [AB-1-14-2]
  Amax (maximum % activation achieved): 477.1 (444 to 516) %

## NC(Cc1c[nH]cn1)C(=O)NCCc1cc2ccccc2[nH]1 (racemic) [(±)PT-1-173 RACEMIC]
  Amax (maximum % activation achieved): 311 (298.6 to 325.7) %

## O=C(CCc1cnc[nH]1)NCCc1c[nH]c2ccccc12 [PT-1-177]
95% CI in parentheses
  A50 (concentration required to activate Nln by 50%): Inactive
[1]
  Amax (maximum % activation achieved): Inactive

## CC(C)(C)OC(=O)N[C@@H](Cc1c[nH]cn1)C(=O)NCCc1cc2ccccc2[nH]1 [PT-1-172]
95% CI in parentheses
  A50 (concentration required to activate Nln by 50%): Inactive
[1]
  Amax (maximum % activation achieved): Inactive

## N[C@@H](Cc1c[nH]cn1)C(=O)N[C@H](Cc1c[nH]cn1)C(=O)O [Compound 2]
[1]
  Amax (maximum % activation achieved): 202.8 (192.2 to 213.4) %

## O=C1NC(Cc2c[nH]cn2)C(=O)N2CCCC12 (centres unmarked) [Cyclo(His-Pro)]
95% CI in parentheses
  A50 (concentration required to activate Nln by 50%): Inactive
[1]
  Amax (maximum % activation achieved): Inactive

## N[C@@H](Cc1c[nH]cn1)C(=O)NCc1ccc(F)cc1 [DF-6-2A]
  Amax (maximum % activation achieved): 252 (235.6 to 270.5) %

## N[C@@H](Cc1c[nH]cn1)C(=O)NCCc1ccc(F)cc1 [DF-2-2B]
95% CI in parentheses
  EC50: 27.9 µM
[1]
  Amax (maximum % activation achieved): 323.1 (311.4 to 335.6) %

## CC(C)(C)OC(=O)N[C@@H](Cc1c[nH]cn1)C(=O)NCCc1ccccc1
95% CI in parentheses
  A50 (concentration required to activate Nln by 50%): Inactive
[1]
  Amax (maximum % activation achieved): Inactive

## CC(C)(C)OC(=O)N[C@@H](Cc1c[nH]cn1)C(=O)N[C@H](Cc1ccccc1)C(=O)O [NK-61-2A] (Boc-His-[dF]-OH)
95% CI in parentheses
  A50 (concentration required to activate Nln by 50%): Inactive
[1]
  Amax (maximum % activation achieved): Inactive

## N[C@@H](Cc1c[nH]cn1)C(=O)NCc1ccc(OC(F)(F)F)cc1 [Compound 5p]
  Amax (maximum % activation achieved): 310 (287.2 to 336.1) %

## CC(C)(C)OC(=O)N[C@@H](Cc1c[nH]cn1)C(=O)NCCc1c[nH]c2ccccc12
95% CI in parentheses
  A50 (concentration required to activate Nln by 50%): Inactive
[1]
  Amax (maximum % activation achieved): Inactive

## N[C@@H](Cc1c[nH]cn1)C(=O)NCc1cccc2ccccc12 [SR-9-1d]
[1]
  Amax (maximum % activation achieved): 264 (256.3 to 272.6) %

## N[C@H](Cc1cnc[nH]1)C(=O)NCc1cccc(C(F)(F)F)c1 [AB-1-9-2]
  Amax (maximum % activation achieved): 184.4 (169.4 to 201.5) %

## N[C@@H](Cc1c[nH]cn1)C(=O)Nc1ccccc1 (single isomer, unassigned) [DF-5-2A]
95% CI in parentheses
  EC50: 7.74 µM
[1]
  Amax (maximum % activation achieved): 139.8 (124.7 to 158.4) %

## N[C@@H](Cc1c[nH]cn1)C(=O)NCCc1ccc(C(F)(F)F)cc1 [AB 3-2-2]
  Amax (maximum % activation achieved): 438.4 (379.4 to 520.4) %

## N[C@H](Cc1c[nH]cn1)C(=O)Nc1cccc2cccnc12 [Compound 11b, (R)-2-amino-3-(1H-imidazol-4-yl)-N-(quinolin-8-yl)propanamide]
[1]
  Amax (maximum % activation achieved): 255.2 (239.9 to 278.9) %

## N[C@@H](Cc1ccccn1)C(=O)NCCc1ccccc1 [AB-1-3-2]
95% CI in parentheses
  A50 (concentration required to activate Nln by 50%): Inactive
[1]
  Amax (maximum % activation achieved): Inactive

## N[C@@H](Cc1c[nH]cn1)C(=O)N1CCCC1 [SR-5-3d]
[1]
  Amax (maximum % activation achieved): 173 (158.5 to 194.1) %

## COc1ccc(CCNC(=O)[C@@H](N)Cc2c[nH]cn2)cc1 [Compound 4e, (S)-2-amino-3-(1H-imidazol-4-yl)-N-(4-methoxyphenethyl)propanamide]
[1]
  Amax (maximum % activation achieved): 339.4 (314.2 to 369.3) %

## N[C@H](Cc1c[nH]cn1)C(=O)NCc1ccc(C(F)(F)F)cc1 (single isomer, unassigned) [AB1-17-2]
  Amax (maximum % activation achieved): 598.8 (532.8 to 692.9) %

## N[C@@H](Cc1c[nH]cn1)C(=O)NCc1cccc(C(F)(F)F)c1 [AB-1-6-2]
  Amax (maximum % activation achieved): 494.4 (476.7 to 512.9) %

## COc1cccc(CNC(=O)[C@@H](N)Cc2c[nH]cn2)c1 [Compound 5f]
  Amax (maximum % activation achieved): 327.5 (309.7 to 348.2) %

## COc1ccc(CNC(=O)[C@@H](N)Cc2c[nH]cn2)cc1 [SR20-1d]
  Amax (maximum % activation achieved): 428.8 (373 to 523.5) %

## COc1ccc(CCNC(=O)[C@@H](N)Cc2c[nH]cn2)cc1 [AB-1-4-2]
[1]
  Amax (maximum % activation achieved): 544 (492.2 to 609.4) %

## N[C@H](Cc1c[nH]cn1)C(=O)NCc1ccc2ccccc2c1 [Compound 10b, (R)-2-amino-3-(1H-imidazol-4-yl)-N-(naphthalen-2-ylmethyl)propanamide]
95% CI in parentheses
  EC50: 6.3 µM
[1]
  Amax (maximum % activation achieved): 197.5 (184.9 to 214.8) %

## N[C@@H](Cc1c[nH]cn1)C(=O)NCCc1ccccc1 [NK-61-4A]
[1]
  Amax (maximum % activation achieved): 231 (216.2 to 248.9) %
